From PubChem BioAssay (NCI)
Values joined by “and” are separate entries in the source; they are usually repeats but may differ in a detail not shown here. Equal entries are not always repeated.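 In this assay, cells in 96-well plates receive the compound at five concentrations for 48 hours. Endpoints are linearly interpolated between the surrounding concentrations. Abbreviation: GI50, concentration required for 50% inhibition of growth. TGI marks complete inhibition of growth.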

What was measured:
Test in all cases: inhibition of tumour cell growth, NCI panel, 48 h
MOLT-4 leukemia = system: MOLT-4 leukemia
SF-268 CNS = system: SF-268 CNS
CCRF-CEM leukemia = system: CCRF-CEM leukemia
A498 renal = system: A498 renal
OVCAR-3 ovarian = system: OVCAR-3 ovarian
MDA-MB-231 breast = system: MDA-MB-231 breast
DU-145 prostate = system: DU-145 prostate
HL-60(TB) leukemia = system: HL-60(TB) leukemia
MCF7 breast = system: MCF7 breast
MALME-3M melanoma = system: MALME-3M melanoma

| Compound | GI50 (MOLT-4 leukemia) | TGI (MOLT-4 leukemia) [µM] | GI50 (SF-268 CNS) | TGI (SF-268 CNS) [µM] | GI50 (CCRF-CEM leukemia) | TGI (CCRF-CEM leukemia) [µM] | GI50 (A498 renal) | TGI (A498 renal) [µM] | GI50 (OVCAR-3 ovarian) | TGI (OVCAR-3 ovarian) | GI50 (MDA-MB-231 breast) | TGI (MDA-MB-231 breast) [µM] | GI50 (DU-145 prostate) | TGI (DU-145 prostate) [µM] | GI50 (HL-60(TB) leukemia) | TGI (HL-60(TB) leukemia) | GI50 (MCF7 breast) | TGI (MCF7 breast) [µM] | GI50 (MALME-3M melanoma) [µM] | TGI (MALME-3M melanoma) [µM] |
| --- | --- | --- | --- | --- | --- | --- | --- | --- | --- | --- | --- | --- | --- | --- | --- | --- | --- | --- | --- | --- |
| CC[C@H](C)[C@H](NC(=O)[C@H]1CCCCN1C)C(=O)N(C)[C@H](C[C@@H](OC(C)=O)c1cccc(C(=O)N[C@@H](Cc2ccccc2)C[C@H](C)C(=O)OC)n1)C(C)C | 0.00811 µM and 0.0111 µM | > 25 | 0.00498 µM and 0.00661 µM | > 25 | 0.00495 µM and 0.0025 µM | > 25 | 0.00445 µM and 0.0025 µM | 0.0166 | 0.000398 µM and < 0.0025 µM | 0.00308 µM and < 0.0025 µM | 0.00427 µM and 0.00267 µM | 0.85 | 0.00282 µM and 0.0025 µM | > 25 | 0.0017 µM and < 0.0025 µM | 0.00655 µM and < 0.0025 µM | 0.000334 µM and 0.0025 µM | > 25 |  |  |
| Fc1ccc(-c2c(-c3ccncc3)nc3n2CCS3)cc1 | > 25 µM | > 25 | > 25 µM | > 25 | > 25 µM | > 25 | > 15.6 µM | > 25 | > 25 µM | > 25 µM | > 25 µM | > 25 | > 25 µM | > 25 | > 25 µM | > 25 µM | > 25 µM | > 25 | > 25 | > 25 |
| O=C(NCCCCN1CCOCC1)c1cc2ccccc2o1 |  |  | > 100 µM | > 100 |  |  | > 100 µM | > 100 | > 100 µM | > 100 µM | > 100 µM | > 100 | > 100 µM | > 100 |  |  | > 100 µM | > 100 | > 100 | > 100 |
| Cc1ccc(O)c(NC(=O)c2cccc(Nc3ccnc(C(F)(F)F)c3)c2)c1 | 2.02 µM | 8.15 | 13.3 µM | 39 | 1.82 µM | 39.2 | 5 µM | 20.5 | 15.5 µM | 41.6 µM | 11.6 µM | 44.8 | 16.4 µM | 71.5 | 0.592 µM | 11.1 µM | 4.21 µM | 26.5 | 19.2 | 78.5 |
| Cc1onc(-c2ccccc2)c1C(=O)N/N=C/c1cc(Cl)cc(Cl)c1O | 3.53 µM | 22.9 | 3.44 µM | > 100 | 1.48 µM | 14.7 | 15 µM | 58.2 | 3.82 µM | 26.6 µM | 4.27 µM | 35.7 | 6.72 µM | > 100 | 2.61 µM | 7.32 µM | 3.18 µM | > 100 | 4.03 | 27.4 |
| CC(=O)O[C@@H]1C2CCC3C(CC[C@@]4(C)C3CC[C@@H]4C(C)N(C)C)[C@@]2(C)CC[C@@H]1NC(=O)C=C(C)C (stereo partly drawn) | 2.33 µM | 5.69 | 1.56 µM | 3.31 | 2.07 µM | 6.59 | 2.32 µM | 9.78 | 2.24 µM | 7.42 µM | 2.24 µM | 5.19 | 4 µM | 16.4 | 2.59 µM | 6.19 µM | 1.67 µM | 4.38 | 1.91 | 3.89 |
| COc1ccc(/C=C\c2cc(OC)c(OC)c(OC)c2)cc1OCC(=O)Nc1nc2ccc(F)cc2s1 | 3.07 µM | > 100 | 7.23 µM | > 100 | 3.7 µM | > 100 | 6.25 µM | > 100 | 9.99 µM | > 100 µM | 9.34 µM | > 100 | 8.97 µM | > 100 |  |  | 2.3 µM | > 100 | 5.22 | > 100 |
| Oc1c(Cl)cc(Cl)c(Cl)c1CNCCNCc1c(O)c(Cl)cc(Cl)c1Cl | 0.561 µM | > 50 | 0.997 µM | 12.1 | 0.231 µM | > 50 | 3.03 µM | 17.3 | 0.502 µM | 7.08 µM | 2.27 µM | 16.6 | 2.09 µM | 12.6 | 0.63 µM | 2.84 µM | 1.12 µM | 14.5 | 1.11 | 9.67 |
| CC(C)(C)C(=O)OCOP(=O)(NCc1ccccc1)C1CCCN(O)C1=O (stereo not drawn) | 2.61 µM | 14.4 | 2.09 µM | > 100 | 0.558 µM | > 100 | 0.692 µM | 9.18 | 1.04 µM | 9 µM | 2.3 µM | 19.9 | 4.03 µM | > 100 | 3.59 µM | 13.7 µM | 2.41 µM | 11.1 | 1 | 6.96 |
| CCOC(=O)c1cc(C(=O)c2ccc(OC)cc2)n2ccc(/C=C/c3cc[n+](CC(=O)c4ccc(OC)cc4)cc3)cc12 | 1.91 µM | 5.53 | 2.09 µM | 4.52 |  |  |  |  | 1.52 µM | 3 µM | 1.58 µM | 3.22 | 2.05 µM | 5.16 | 1.78 µM | 4.24 µM | 1.51 µM | 3.56 | 1.67 | 3.66 |
| Cc1nc([N+](=O)[O-])cn1-c1nc2ccccn2c1[N+](=O)[O-] |  |  |  | > 100 |  |  |  | > 100 |  | > 100 µM |  | > 100 |  | 83.6 |  |  |  | > 100 |  | > 100 |
| Nc1nc(/C=C\c2ccc([N+](=O)[O-])s2)nc(N2CCN(c3ccccc3)CC2)n1 | 23.1 µM | 75.3 | 27.2 µM | 80 | 29.3 µM | 79.1 | 0.0746 µM | 15.5 | 19 µM | 35.9 µM | 13 µM | 29.6 | 21.9 µM | 51.4 | 18.8 µM | 54.2 µM | 14.8 µM | 49.4 | 24.9 | 59.8 |
| COC(COC(N)=O)C1=C(N2CC2)C(=O)C(C)=C(N2CC2)C1=O (stereo not drawn) |  | 7.26 |  | 0.624 |  | 24.6 |  | 0.267 |  | 0.379 µM |  | 0.859 |  | 0.0264 |  | 2.72 µM |  | 1 |  | 0.301 |
